Tests used:
[1] = system: DT40 cells; assay: SSB repair through NAD(P)H depletion, DT40 cells; type: cell-based, chicken; settings: DT40 cells exposed to MMS
Description: (§1) SSB repair capacity was determined by a real-time colorimetric assay that measures intracellular NAD(P)H levels (Tano et al., DNA Repair, 6, 869-875 (2007)). PARP-1 activation during SSB repair leads to NAD^+ consumption, which can be indirectly monitored through NAD(P)H depletion (Nakamura et al., Nucleic Acids Res., 31, e104 (2003)). Briefly, 5×10^3 cells/well were seeded into a 96-well plate. After a 30 minute incubation period, the cells were treated with 1 mM MMS quickly followed by the addition of a dye containing XTT (Sigma) and 1-methoxy PMS (Sigma). For up to 4 hours, the NAD(P)H-dependent conversion of the XTT tetrazolium salt to a yellow colored formazan dye was measured spectrophotometrically. Decreases in intracellular NAD(P)H levels were determined through comparison of values to those of the PBS control. Established methods for detecting SSBs have not been adequately characterized for pH effects on DNA structure and chemistry and also lack a high specificity for SSBs, primarily because of artifactual SSB formation. […] The accumulation of SSBs leads to PARP-1 over-activation and the consumption of NAD+, which is indirectly monitored in living cells through the measurement of intracellular NAD(P)H depletion using tetrazolium salts, such as XTT, during chemical exposure (Tano et al., DNA Repair, 6, 869-875 (2007)). […]

[2] = system: Pol β null cells; assay: SSB repair through NAD(P)H depletion, Pol β null cells; type: cell-based, chicken; settings: Pol β null cells exposed to MMS
Description: as §1

[3] = system: DT40 cells; assay: Cell death in DT40 cells; type: cell-based; settings: unpublished data
[4] = system: Chinese hamster ovary (CHO) AA8 cells; assay: OTX-coupled comet assay; type: cell-based; settings: 1 mM MMS 10 minutes
Description: Chinese hamster ovary (CHO) AA8 cells were seeded at a concentration 0.5×10^6 cell/mL into several 10 cm culture dishes with 10 mL of MEM-α media (Gibco) supplemented with 10% fetal bovine serum (heat inactivated; Sigma), 100 μg/mL penicillin, and 100 μg/mL streptomycin. These were allowed to grow for 48 hours at 37° C. and 5% CO2. Culture dishes were about 80-85% confluent at harvest.
Before cells were harvested for use in the comet assay, the lysis solution (2.5 M NaCl, 100 mM Na2-EDTA, 10 mM Trizma, pH 10) was completed with the addition of 10% (v/v) DMSO and 1% (v/v) Triton X-100, mixed thoroughly, and refrigerated at 4° C. A 0.5% solution of low melting point agarose (LMPA) was also prepared and allowed to equilibrate to 37° C. in a water bath. Partially frosted microscope slides, pre-coated several days before with 50 μL of 1% normal melting point agarose (NMPA), were labeled and set aside.
Prior to cell harvest, the media was removed and each dish was washed with 10 mL of 1×PBS. An additional 2 mL of 1×PBS was added to each dish and the cells were harvested using a rubber policeman. Harvested cells were combined into 15 mL centrifuged tubes and gently mixed by pipetting to obtain a homogenous cell sample. The cell count was obtained using a hemacytometer. The volume of cell sample needed to obtain 11,000 cells per slide to be prepared was added to a new 15 mL centrifuge tube and centrifuged for 5 minutes at 1,100 RPM. The supernatant was removed and the cell pellet resuspended in 1×PBS at a volume equal to 10 μL per slide to be prepared (e.g. 5 slides×10 μL per slide=50 μL 1×PBS total).
For each slide to be prepared, 10 μL of the cell sample was added to a 1.5 mL centrifuge tube. The cell layer of the slide was created by first gently mixing 100 μL of the 0.5% LMPA with the 10 μL of cell sample in the tube. This mixture was then added to a pre-coated slide and a coverslip placed onto the slide to create a thin layer of the cell mixture. Slides with cell layers were then refrigerated at 4° C. for 15 minutes to solidify the gel. After this incubation, the initial coverslips were removed and an additional 150 μL of 0.5% LMPA was added to each slide. A fresh coverslip was placed onto each slide to create a thin top layer and the slides were refrigerated for another 15 minutes. After removing the coverslip, completed slides that were receiving MMS treatment were placed in a slide chamber containing warmed MEM-α media with 1 mM MMS for 10 minutes. The slide chamber was kept warm by placing it within an incubator held at 37° C. After the 10 minutes, the slides were washed with 1×PBS for 5 minutes at room temperature and then transferred to slide chambers containing the chilled lysis solution. […]

[5] = system: AP sites in genomic DNA exposed to heat/acid conditions; assay: OTX optimization for protection of AP sites from alkaline cleavage (alkaline gel electrophoresis); design: species or system chicken; settings: OTX 37° C. 1 hour, denaturation 100 mM NaOH (pH 12.8)
Description: AP sites were produced in stock DT40 DNA through exposure to heat/acid conditions. DT40 DNA was incubated in sodium citrate buffer (10 mM sodium citrate, 10 mM NaH2PO4, 10 mM NaCl pH 5) for 5 minutes at 70° C., followed by rapid chilling on ice to stop the reaction (Nakamura et al., Cancer Res., 58, 222-225 (1998)). Depurinated DNA was collected using Microcon® YM-3 centrifugal filter devices (Amicon Bioseparations). This DNA was then washed several times with HEPES buffer (50 mM, pH 7) supplemented with 1 mM 2,2,6,6-tetramethylpiperidine-N-oxyl (TEMPO). DNA was resuspended in HEPES buffer containing 1 mM TEMPO.
An alkaline gel electrophoresis protocol (AGE) (Drouin et al., in: Technologies for Detection of DNA Damage and Mutations (G. P. Pfeifer, ed.). Plenum Press, New York, N.Y., pp. 37-43 (1996)) with modifications was used to assess SSBs and ALSs in DNA from exposed cells. The 0.7% agarose gel was prepared in gel buffer (50 mM NaCl, 1 mM EDTA, pH 7) and deionized water. After forming, the gel was soaked in mild alkaline running buffer (30 mM NaOH, 1 mM EDTA, pH 12.4) for at least 30 minutes. Equal amounts of DNA (3-5 μg) were incubated for 1 hour at 37° C. in the presence or absence of 30 mM OTX (Aldrich) in 50 mM HEPES buffer. […] Following OTX exposure, the samples were denatured through treatment with an alkaline buffer (100 mM NaOH, 30 mM OTX, 50 mM HEPES, pH 12.8) for 20 minutes at 37° C. Samples then received loading buffer (10 mM NaOH, 95% formamide (Fluka), 0.05% bromophenol blue, 0.05% xylene cyanol) and were loaded onto the agarose gel. The gel was subjected to electrophoresis at a constant voltage (30 V) for 16 hours at 4° C. At the completion of electrophoresis, the gel was placed in neutralization buffer (400 mM Tris, pH 7.5) for 20 minutes at room temperature. […]
With knowledge of optimal AP site cleavage (pH≧12.2) and DNA denaturation (pH≦12.56) conditions, the utility of stabilizing AP sites prior to complete unwinding at high pH was assessed for subsequent gel electrophoresis. […]

Compound | protection from MMS-induced NAD(P)H depletion [1] | protection from MMS-induced NAD(P)H depletion [2] | concentration that induces cell death [3] | tail moments over the various incubation times with OTX protection ([4]; 300 mM OTX 0-4 hours at 37° C.) | tail moment with OTX protection vs 1 hour incubation without OTX ([4]; 300 mM OTX, 1 hour incubation) | tail moment, one hour incubation with OTX vs zero hour incubation control without OTX ([4]; 300 mM OTX, one hour) | optimum concentration to protect AP sites from alkaline cleavage [5] | OTX concentration with complete protection of AP sites from alkaline cleavage ([5]; electrophoresis pH 12.4) | OTX concentration with little to no protection of AP sites from alkaline cleavage ([5]; electrophoresis pH 12.4)
NC(=O)c1cccc(N)c1 [3-aminobenzamide] | mostly protected | mostly protected | – | – | – | – | – | – | –
CON [Methoxyamine] | – | – | 20000 to 30000 µM | – | – | – | – | – | –
NOC1CCCCO1 (stereo not shown) [OTX, O-(tetrahydro-2H-pyran-2-yl)hydroxylamine] | – | – | 2000 µM | no significant increase in tail moments | significant decrease in tail moment | significant decrease in tail moment | 30 mM | ≥ 10 mM | < 1 mM

Source: patent US20090233307A1, “METHODS FOR DETECTION OF SINGLE STRAND BREAKS IN DNA” (The University of North Carolina at Chapel Hill, priority 2008, published 2009)
